The values that follow come from patent US20170216350A1, “COMPOSITIONS OF ALUMINUM FLUORIDE AND METHODS OF USE THEREOF FOR THE TREATMENT AND PREVENTION OF ACTINIC KERATOSIS AND SUN-INDUCED DAMAGES” (priority 2012, published 2017).

For this assay, the system named is actinic keratosis lesions. The note with it: twice daily. From the text: A cream was applied on dry skin, on the whole forehead, twice daily. Aluminum fluoride at 0.30% w/w was used in a base cream containing Caprylic/Capric acids, sulfur, resorcinol, medium chain triglycerides, PEG 400, Pluronic F127, Ylang ylang oil and water .
Patient 2 is a person having actinic keratosis on their nose, in particular, two ulcers of about 1 mm each. The aluminum fluoride composition was at 0.30% w/w, and the base cream was modified to a cream containing deionized water, arachidyl alcohol, behenyl alcohol, arachidyl glucoside, montanoV 202, cetearyl alcohol, capric/caprilic triglyceride, isopropyl palmitate, steareth-2, dimethicon, steareth-20, allantoin, propylene glycol, Methylisothiazolinone (sheromix MT) and sodium benzoate.
A cream was applied on dry skin, on the cheek, twice daily. Aluminum fluoride at 0.30% w/w was used in a base cream containing Caprylic/Capric triglycerides, a polyethylene glycol component, hydrophilic non-ionic surfactant and purified water.
A cream was applied on dry skin, on the whole forehead, twice daily. Aluminum fluoride at 0.30% w/w was used in a base cream containing Caprylic/Capric triglycerides, a polyethylene glycol component, hydrophilic non-ionic surfactant and purified water.

Consider aluminum fluoride, for which the “actinic keratosis lesions (FIG. 1A/1B)” value (Patient 1, 8th decade, 0.30% w/w in base cream (Caprylic/Capric acids, sulfur, resorcinol, MCT, PEG 400, Pluronic F127), whole forehead, 3 weeks) is reported as “gradual disappearance of lesions”. Further, for the setting “Patient 2, 0.30% w/w in modified base cream”, the “vascularization (FIG. 2(ii) compared to FIG. 2(i))” value was “major decrease in vascularization”. In addition, the “actinic keratosis ulcers on nose (two ulcers of about 1 mm each)” value (Patient 2, 0.30% w/w in modified base cream, after approximately three weeks) was “closure of the first ulcer and disappearance of the second ulcer”. Further, where the note is “Patient 6, 6th decade, 0.30% w/w in base cream (Caprylic/Capric triglycerides, polyethylene glycol component, non-ionic surfactant, water), cheek, 12 weeks”, the “actinic keratosis lesions (FIG. 3A/3B)” value is on record as “disappearance of lesions”. The “actinic keratosis lesions (FIG. 4A/4B)” value (Patient 13, 6th decade, 0.30% w/w in base cream (Caprylic/Capric triglycerides, polyethylene glycol component, non-ionic surfactant, water), whole forehead, 10 weeks) is “disappearance of lesions”.
